What was measured:
Hs683 = experiment: MTT colorimetric assay, Hs683; format: cell-based; settings: Homo sapiens, Hs 683; 72 h treatment; mean ± SEM; sensitive to apoptosis; read-out: IC50 determined by MTT assays, Hs683
From the text: (§1) Cancer cell lines were obtained from either the European Collection of Cell Cultures (ECACC; Salisbury, UK) or the American Type Culture Collection (ATCC; Manassas, VA). The two glioma cell lines were the U373 (ECACC code 08061901) and Hs683 (ATCC HTB-138) cell lines. The carcinoma cell lines were the A549 non-small cell carcinoma cell line (ATCC code CCL 185) and the MCF-7 mammary breast carcinoma cell line (ATCC code HTB-22). The melanoma cell lines were the mouse B16F10 cells (ATCC code CRL-6475) and the human SKMEL-28 cells (ATCC code HTB-72). The ovarian cancer cell line A2780 and its cisplatin-resistant subline A2780cis were obtained from Sigma-Aldrich (St. Louis, MO, USA). Colon cancer HCT116 cells were obtained from ATCC (CCL-247) and the oxaliplatin-resistant subline HCT116/OxR established in the W. Berger lab[59]. The HeLa cell derivative KB-3-1 and the colchicine-selected, highly ABCB1-overexpressing subline KB-C-1 were generously donated by Dr. D. W. Shen, Bethesda, MD. RKOp53wt colon cancer cells together with the RKOp53KO (homozygous knock-out) subline[60] were generously provided by Dr. Vogelstein from John Hopkins University, Baltimore. The correct origin of all cell models was confirmed by STR during performance of the experiments. All cell lines were cultured in RPMI1640 culture medium supplemented with 10% heat-inactivated fetal bovine serum, 2% L-glutamine (0.6 mg/mL), 2% penicillin/streptomycin (200 IU/mL and 200 μg/mL) and 0.1 mg/mL gentamicin.
(§2) The MTT (3-(4,5-dimethylthiazol-2-yl)-2,5-diphenyl tetrazolium bromide) colorimetric assay has been conducted as described previously. Briefly, cells were seeded 24 h before their treatment with each compound for a period of 72 h. The concentrations tested ranged from 10 nM to 100 µM. Each assay was conducted in sextuplicates. The number of independent experiments is mentioned in the legend of the tables.

B16F10 = experiment: MTT colorimetric assay, B16F10; format: cell-based; settings: Mus musculus, B16-F10; 72 h treatment; mean ± SEM; sensitive to apoptosis; read-out: IC50 determined by MTT assays, B16F10
From the text: as §1, §2

U373 = experiment: MTT colorimetric assay, U373; format: cell-based; settings: Homo sapiens, U373 MG; 72 h treatment; mean ± SEM; resistant to apoptosis; read-out: IC50 determined by MTT assays, U373
From the text: as §1, §2

SKMEL-28 = experiment: MTT colorimetric assay, SKMEL-28; format: cell-based; settings: Homo sapiens, SK-MEL-28; 72 h treatment; mean ± SEM; resistant to apoptosis; read-out: IC50 determined by MTT assays, SKMEL-28
From the text: as §1, §2

A549 = experiment: MTT colorimetric assay, A549; format: cell-based; settings: Homo sapiens, 72 h treatment, mean ± SEM of six replicates of one experiment (1: 7, 13: 6 independent experiments), resistant to apoptosis, read-out: IC50 determined by MTT assays, A549
From the text: as §1, §2

[1] = tested on: SKMEL-28 melanoma and U373 glioblastoma cells; experiment: Morphological evaluation by phase contrast microscopy / videomicroscopy; format: cell-based, human; settings: videomicroscopy in SKMEL-28 cells
Description: For the morphological evaluation of the effects induced by compounds 1 and 13, 6 × 10^4 cells were seeded on glass coverslips placed in 6 well plates a minimum 24 h before their treatment. At the end of the incubation period with the treatment, coverslips were rinsed once in PBS buffer and directly mounted on slides to allow visualization of the cell with an Axio.Imager.M2 microscope (G X40 and G X100).

[2] = tested on: A549, SKMEL-28, U373, MCF7, Hs683, B16F10; experiment: MTT colorimetric assay, mean of the six cell lines; format: cell-based; settings: 72 h, mean over the six cell lines; 72 h treatment; read-out: IC50 determined by MTT assays, Mean
From the text: as §1, §2

MCF7 = experiment: MTT colorimetric assay, MCF7; format: cell-based; settings: Homo sapiens, 72 h treatment, mean ± SEM, sensitive to apoptosis, read-out: IC50 determined by MTT assays, MCF7
From the text: as §1, §2

A2780R = experiment: MTT assay, A2780R (cisplatin-resistant); format: cell-based; settings: 72 h treatment; ± standard deviation; drug-resistant model; read-out: IC50 determined by MTT assays, A2780R
From the text: as §1, §2
(§3) SI Table 1: IC50 determined by MTT assays. Mean concentration (± standard deviation) in µM required to
(§4) reduce the viability of cells by 50% after a 72 h treatment relative to the control.
(§5) Parental sensitive models Drug-resistant models

KB-3-1 = experiment: MTT assay, KB-3-1 (parental sensitive); format: cell-based; settings: Homo sapiens, KB 3-1; 72 h treatment; ± standard deviation; parental sensitive model; read-out: IC50 determined by MTT assays, KB-3-1
From the text: as §1, §2, §3, §4, §5

A2780 = experiment: MTT assay, A2780 (parental sensitive); format: cell-based; settings: Homo sapiens, A2780; 72 h treatment; ± standard deviation; parental sensitive model; read-out: IC50 determined by MTT assays, A2780
From the text: as §1, §2, §3, §4, §5

Hct116/OxR = experiment: MTT assay, Hct116/OxR (oxaliplatin-resistant); format: cell-based; settings: Homo sapiens, HCT-116; 72 h treatment; ± standard deviation; drug-resistant model; read-out: IC50 determined by MTT assays, Hct116/OxR
From the text: as §1, §2, §3, §4, §5

Drug-resistant models = experiment: MTT assay, mean of drug-resistant models; format: cell-based; settings: 72 h treatment; read-out: IC50 determined by MTT assays, mean of drug-resistant models
From the text: as §1, §2, §3, §4, §5

human TopIIa = target: T1, human TopIIa (Homo sapiens, UniProt P11388); experiment: Cell-free decatenation assay; format: biochemical; settings: at 500 µM, read-out: TopoIIa inhibition
T1 construct: purchased TopoGen (Port Orange, FL, USA)
T1 sequence (P11388 whole entry): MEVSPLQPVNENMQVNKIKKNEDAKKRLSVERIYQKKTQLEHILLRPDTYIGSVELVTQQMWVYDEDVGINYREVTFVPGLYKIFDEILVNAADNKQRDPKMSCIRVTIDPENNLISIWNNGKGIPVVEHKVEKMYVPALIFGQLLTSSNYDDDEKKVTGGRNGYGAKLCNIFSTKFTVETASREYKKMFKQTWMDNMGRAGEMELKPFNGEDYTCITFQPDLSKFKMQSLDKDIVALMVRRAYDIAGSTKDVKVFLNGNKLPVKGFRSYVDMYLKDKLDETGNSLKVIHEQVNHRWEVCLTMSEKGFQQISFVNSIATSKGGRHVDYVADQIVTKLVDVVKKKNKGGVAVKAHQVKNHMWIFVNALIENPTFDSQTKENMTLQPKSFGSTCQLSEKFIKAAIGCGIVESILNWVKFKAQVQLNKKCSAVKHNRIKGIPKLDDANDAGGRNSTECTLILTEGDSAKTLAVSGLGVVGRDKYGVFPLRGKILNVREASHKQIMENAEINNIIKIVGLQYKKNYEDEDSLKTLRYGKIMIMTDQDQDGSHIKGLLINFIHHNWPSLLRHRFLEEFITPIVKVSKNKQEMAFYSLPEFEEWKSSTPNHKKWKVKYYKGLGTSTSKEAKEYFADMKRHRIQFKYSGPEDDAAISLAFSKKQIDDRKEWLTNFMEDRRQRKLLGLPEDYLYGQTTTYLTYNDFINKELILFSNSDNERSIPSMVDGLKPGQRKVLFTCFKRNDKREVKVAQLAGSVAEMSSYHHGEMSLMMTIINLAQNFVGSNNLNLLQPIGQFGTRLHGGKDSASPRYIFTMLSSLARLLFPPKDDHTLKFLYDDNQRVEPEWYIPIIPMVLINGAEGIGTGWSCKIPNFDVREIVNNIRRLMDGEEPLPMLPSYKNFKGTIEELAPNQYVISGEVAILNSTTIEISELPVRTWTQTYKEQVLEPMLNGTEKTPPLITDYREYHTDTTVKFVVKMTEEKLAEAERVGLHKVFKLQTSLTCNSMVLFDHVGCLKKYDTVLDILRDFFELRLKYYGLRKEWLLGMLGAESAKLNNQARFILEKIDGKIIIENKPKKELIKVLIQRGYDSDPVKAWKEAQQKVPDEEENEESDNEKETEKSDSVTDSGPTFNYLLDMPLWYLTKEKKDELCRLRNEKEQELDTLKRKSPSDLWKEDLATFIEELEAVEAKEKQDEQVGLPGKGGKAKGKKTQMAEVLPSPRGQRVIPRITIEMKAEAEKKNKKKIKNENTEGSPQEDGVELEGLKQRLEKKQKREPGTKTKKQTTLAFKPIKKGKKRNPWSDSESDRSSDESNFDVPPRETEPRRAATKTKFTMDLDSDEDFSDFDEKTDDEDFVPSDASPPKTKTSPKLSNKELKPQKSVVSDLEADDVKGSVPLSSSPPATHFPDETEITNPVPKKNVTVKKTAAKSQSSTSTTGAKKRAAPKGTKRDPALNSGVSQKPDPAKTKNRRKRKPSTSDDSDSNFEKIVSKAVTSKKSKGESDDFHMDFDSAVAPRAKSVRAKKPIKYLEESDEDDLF
Description: The topoisomerase (Top) activity assay kit, including kinetoplast DNA (kDNA and recombinant human TopIIa enzyme, was obtained from TopoGen (Port Orange, FL, USA), agarose from PeqLab (Erlangen, Germany), 50 × TAE buffer from Roth (Karlsruhe, Germany) and ethidium bromide solution (10 mg/mL) from Sigma-Aldrich (Taufkirchen, Germany). Decatenation assays were performed as described previously[62] with slight modifications according to the manufacturer’s protocol. 100 µM of the recently described dual topoisomerase poison P8-D6 served as a positive control, and 5% DMSO as a solvent control. Briefly, the compounds were dissolved in DMSO and diluted to 20× the concentration to be tested. 1 µL of the resulting stock solutions were mixed with 18 µL of a buffer containing 200 ng kDNA and 1 mM ATP. Subsequently, 1 µL of a 1u/µL dilution of TopIIa enzyme was added and incubated at 37 °C for 30 min. Afterwards, the reaction was stopped by addition of Stop buffer, and electrophoresis was carried out on a 1% agarose gel in TAE buffer. The gel was stained with 0.5 µg/mL ethidium bromide, washed with water, and fluorescence images were captured with the LAS4000 system (Fujifilm, Duesseldorf, Germany). All steps were carried out on ice.

Hct116 = experiment: MTT assay, Hct116 (parental sensitive); format: cell-based; settings: Homo sapiens, HCT-116; 72 h treatment; ± standard deviation; parental sensitive model; read-out: IC50 determined by MTT assays, Hct116
From the text: as §1, §2, §3, §4, §5

[3] = tested on: Parental sensitive models; experiment: MTT assay, mean of parental sensitive models; format: cell-based; settings: 72 h treatment; read-out: IC50 determined by MTT assays, mean of parental sensitive models
From the text: as §1, §2, §3, §4, §5

RKO/p53ko = experiment: MTT assay, RKO/p53ko; format: cell-based; settings: 72 h treatment; ± standard deviation; drug-resistant model; read-out: IC50 determined by MTT assays, RKO/p53ko
From the text: as §1, §2, §3, §4, §5

RKO/P53wt = experiment: MTT assay, RKO/P53wt (parental sensitive); format: cell-based; settings: 72 h treatment; ± standard deviation; parental sensitive model; read-out: IC50 determined by MTT assays, RKO/P53wt
From the text: as §1, §2, §3, §4, §5

KB-C-1 = experiment: MTT assay, KB-C-1 (ABCB1-overexpressing); format: cell-based; settings: KBC-1; 72 h treatment; ± standard deviation; drug-resistant model; read-out: IC50 determined by MTT assays, KB-C-1
From the text: as §1, §2, §3, §4, §5

[4] = tested on: SK-MEL-28 human melanoma and U373 glioblastoma cells; experiment: ER swelling / vacuole origin (CellLight ER-GFP, brightfield, TEM); format: cell-based; settings: SK-MEL-28 and U373 cells
From the text: To decipher the origin of vacuoles, fluorescent probes staining different cellular compartments were used: the lysosomal Red DND-99 LysoTracker®, the glibenclamide Red ER tracker®, the green FM MitoTracker® that were all purchased from Lifes Technologies (Invitrogen, Belgium) and used according to manufacturer’s instructions. The CellLight ER-GFP (Thermofisher, Belgium) staining of the ER is based on the transfection of a plasmid coding for a fusion protein made of GFP fused to the ER signal sequence of calreticulin and the KDEL ER retention signal. Briefly, 6 × 10^4 cells were seeded on glass coverslips in 6 well plates. After a minimum of 24 h, cells were treated or not with the compounds of interest. Note that concentration and duration of the treatment were determined separately for each compound prior to the experiment on the basis of the apparition of marked morphological changes in phase contrast microscopy. Sixteen hours before the end of the experiment, 4 µL/well of the reagent were added to allow transfection and expression of the GFP-fused protein by the cells. Coverslips were then washed twice in PBS and mounted on slides without fixation step to take captions with the Axio.Imager.M2 microscope (Carl Zeiss, Belgium). To evaluate the cellular distribution of 13, the Axio.Imager.M2 was specifically equipped with an M340L4 excitation source (Thorlabs) and the pseudoconfocal Zeiss ZEN deconvolution system kindly provided for demo by Carl Zeiss (Belgium) to allow direct visualization of the compound 13 itself thanks to its intrinsic fluorescent properties.
For TEM, cells were fixed with glutaraldehyde 2.5% (EM grade, Electron Microscopy Sciences, EMS) at 4 °C overnight, washed tree times in cacodylate buffer (pH 7.4) and postfixed 1 h at room temperature in 1% OsO4, (EMS), 1.5% potassium ferrocyanide (Sigma-Aldrich) in 0.15 M cacodylate buffer. This was immediately followed by a second incubation in 1% OsO4 for 1 h at room temperature. After washing in distilled water, samples were stained with 1% uranyl acetate (EMS) and serially dehydrated in increasing ethanol concentrations. Samples were then embedded in epoxy resin (Agar 100 resin, Agar Scientific Ltd) and left to polymerize for 2 days at 60 °C. Ultrathin sections (50–70 nm thick) were collected with a Leica UC6 ultra-microtome on formvar-carbon-coated copper grids and further stained with uranyl acetate and lead citrate by standard procedures. Observations were made on a Tecnai 10 transmission electron microscope (FEI) and images were captured with a Veleta camera and processed with SIS iTEM software (Olympus).

Row | SMILES | IC50 (Hs683) | IC50 (B16F10) | IC50 (U373) | IC50 (SKMEL-28) | IC50 (A549) | delay in the cellular shrinkage versus SphA 1 [1] | IC50 [2] | IC50 (MCF7) | IC50 (A2780R) | IC50 (KB-3-1) | IC50 (A2780) | IC50 (Hct116/OxR) | IC50 (Drug-resistant models) | inhibition at 500 µM (human TopIIa) | IC50 (Hct116) | IC50 [3] | IC50 (RKO/p53ko) | IC50 (RKO/P53wt) | IC50 (KB-C-1) | ER swelling / ER-derived vacuolization [4]
1 | C#CCCCC(=O)OC12OC(=O)C3(CCCC(C)(C)C13)C1(O)CCC(C)(C=C)C=C1C2=O (centres unmarked) [Compound 3] | 2.83 ± 0.13 µM | 2.6 ± 0.07 µM | 2.37 ± 0.09 µM | 2.56 ± 0.09 µM | 2.4 ± 0.1 µM | ≥ 24 h | 2.75 ± 0.21 µM | 3.72 ± 0.27 µM |  |  |  |  |  |  |  |  |  |  |  | 
2 | C=CC1(C)C=C2C(=O)C3(OC(=O)c4ccccc4)OC(=O)C4(CCCC(C)(C)C34)C2(O)CC1 (centres unmarked) [Compound 4] | 2.5 ± 0.12 µM | 1.88 ± 0.1 µM | 2.19 ± 0.07 µM | 2.29 ± 0.17 µM | 1.76 ± 0.29 µM | ≥ 24 h | 2.1 ± 0.11 µM | 1.95 ± 0.14 µM |  |  |  |  |  |  |  |  |  |  |  | 
3 | C=C[C@]1(C)C=C2[C@@H](O)[C@@]3(O)OC(=O)[C@@]4(CCCC(C)(C)[C@H]34)[C@@]2(O)CC1 [Compound 15, sphaeropsidin B, reference compound] | 43.1 ± 1.07 µM | 41.7 ± 1.49 µM | 37.8 ± 1.5 µM | 59.3 ± 4.51 µM | 44.8 ± 0.54 µM |  | 51.9 ± 7.19 µM | 84.5 ± 8.29 µM | > 100 µM | > 100 µM | > 100 µM | > 100 µM | > 100 µM | ~50% | > 100 µM | > 100 µM | > 100 µM | > 100 µM | > 100 µM | 
4 | CC1(C=CCOCc2ccc3ccc4cccc5ccc2c3c45)C=C2C(=O)C3(O)OC(=O)C4(CCCC(C)(C)C34)C2(O)CC1 (centres unmarked) [Compound 25] | 3.32 ± 0.23 µM | 3.28 ± 0.3 µM | 3.93 ± 0.1 µM | 3.32 ± 0.3 µM | 3.47 ± 3.28 µM |  | 3.34 ± 0.16 µM | 2.71 ± 0.14 µM |  |  |  |  |  |  |  |  |  |  |  | induction of ER-derived vacuolization
5 | CC1(C=CCCOc2cccc3ccccc23)C=C2C(=O)C3(O)OC(=O)C4(CCCC(C)(C)C34)C2(O)CC1 (centres unmarked) [Compound 26] | 3.1 ± 0.23 µM | 1.08 ± 0.14 µM | 2.84 ± 0.12 µM | 2.46 ± 0.08 µM | 2.05 ± 0.2 µM |  | 2.14 ± 0.33 µM | 1.3 ± 0.11 µM |  |  |  |  |  |  |  |  |  |  |  | induction of ER-derived vacuolization
